Source: US8236984B2, “Compound and use thereof in the treatment of amyloidosis” (Pentraxin Therapeutics Ltd., priority 2007, dated 2012)
“Also recorded” adds a separate entry of the source.

What was measured:
V30M transthyretin = biological target: T1, V30M transthyretin (Homo sapiens, UniProt P02766, V50M); assay: Mass spectrometric analysis of subunit exchange; type: biochemical; details: 2-fold molar excess of ligand, data not shown
T1 construct: made in house
Experimental: (§1) 4.2 Mass spectrometric analysis of subunit exchange. Recombinant wild type, L55P and V30M transthyretin variants were biosynthetically labelled with isotopes [^15N] and [^15N, ^13C] as previously described (Keetch C A et al, 2005). Immediately prior to analysis, proteins were buffer exchanged into 20 mM ammonium acetate, pH 7.0 using Micro Biospin columns (Bio-Rad, UK). The subunit composition of transthyretin was monitored as a function of time by incubating an equimolar solution (4.4 μM) of [^15N] and [^15N, ^13C] labelled proteins in the presence of 2-fold molar excess of 4ajm15 in DMSO or 2.5% DMSO alone as a control. Each experiment was carried out in triplicate at room temperature and at 4° C. as well, since it is known that subunit exchange is accelerated at low temperatures. Nanoflow ESMS was performed on a QToF2 instrument (Waters/Micromass UK, Ltd.) modified for high mass operation (Sobott et al, (2002)) and calibrated externally using caesium iodide (100 mg/ml). Each solution, 1.5 μl, was electrosprayed from gold coated borosilicate capillaries prepared in-house as described (Nettleton E J, et al, 1998). […]

wild type transthyretin = wild type transthyretin (Homo sapiens, UniProt P02766); assay: Mass spectrometric analysis of subunit exchange; type: biochemical; parameters: made in house; details: 4.4 μM labelled proteins, 2-fold molar excess of ligand, room temperature and 4° C.
Experimental: as §1

transthyretin Met30 = transthyretin Met30 (Homo sapiens, UniProt P02766); assay: Displacement of 125I-T4 from transthyretin in whole serum; type: binding; details: read-out: IC50 for displacement of T4 from transthyretin Met30 in serum; whole serum of heterozygous subjects, mean
Text: (§2) 3.2.3.2. Quantitative studies in serum. […] The immunoprecipitate was recovered by centrifugation, washed twice with 0.1 M Tris, 0.1 M NaCl, pH 8.0 and counted.

transthyretin Ile122 = transthyretin Ile122 (Homo sapiens, UniProt P02766); assay: as above; type: binding; details: read-out: IC50 for displacement of T4 from transthyretin Ile122 in serum; whole serum of heterozygous subjects, mean
Text: as §2

[1] = biological target: T2, thyroxine binding globulin (TBG) (Homo sapiens, UniProt P05543); assay: T4 displacement from T4 binding proteins in whole serum (agarose gel electrophoresis, densitometry); details: increasing concentrations of ligand
T2 construct: from tissue; host or cells: whole serum
T2 sequence (P05543 21-415): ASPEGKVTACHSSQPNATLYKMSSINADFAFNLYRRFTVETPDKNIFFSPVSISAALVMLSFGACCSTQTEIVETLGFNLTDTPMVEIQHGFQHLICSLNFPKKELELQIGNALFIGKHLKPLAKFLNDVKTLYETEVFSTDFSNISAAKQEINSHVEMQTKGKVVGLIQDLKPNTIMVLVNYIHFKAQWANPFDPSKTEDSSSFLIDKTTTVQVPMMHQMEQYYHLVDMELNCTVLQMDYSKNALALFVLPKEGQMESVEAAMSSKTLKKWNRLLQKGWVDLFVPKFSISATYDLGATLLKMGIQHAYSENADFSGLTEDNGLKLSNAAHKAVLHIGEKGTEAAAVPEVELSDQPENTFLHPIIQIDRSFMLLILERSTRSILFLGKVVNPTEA
Text: 3.2.3.3. […] After the electrophoresis, the proteins were transferred by capillary diffusion to a nitrocellulose membrane and subjected to phosphor imaging (Typhoon 8600; […], Amersham Biosciences). The two known T4-binding proteins, transthyretin and thyroxine binding globulin (TBG), were distinctly visualized, while albumin binding appears as a radioactive smear between them.

transthyretin = biological target: T3, transthyretin (Homo sapiens, UniProt P02766); assay: Analytical ultracentrifugation (sedimentation velocity and equilibrium); type: biochemical
T3 construct: Native tetrameric transthyretin was purified from fractionated human plasma; from tissue; host or cells: human plasma
Experimental: 4.1. Analytical ultracentrifugation. Sedimentation velocity and equilibrium analytical centrifugation experiments were performed at 20° C. on a Beckman XL-I instrument equipped with an An50Ti rotor in which both absorbance (recorded at a wavelength of 280 nm) and interference scans were recorded simultaneously. Sedimentation analyses were performed at pH 4.4 by incubating the protein (3.6 μM) for 72 h under the conditions of the stagnant transthyretin aggregation-inhibition assay (Petrassi et al., 2000) in presence of the ligand (3.6 μM). […] Sedimentation velocity data were acquired over 8 h at rotor speed of 42,000 rpm in two-sector cells with solution column heights of 12 mm. Absorbance values were modelled as a continuous distribution of sedimentation coefficients, c(s) (Schuck, 2000) using the software SEDFIT (Schuck, 2005). Sedimentation equilibrium measurements of transthyretin bound to the ligand, in the same conditions used for the sedimentation velocity analysis, were acquired using six-sector cells in an AnTi 50 rotor with column heights of 2 mm at rotor speed of 17,000 rpm until equilibrium was reached as shown by the perfect overlay of runs measured at intervals of 5 h. A final run at 42,000 rpm was performed at the end of the experiment to determine the background levels for use in curve fitting. Data analysis was performed using Beckman software provided as an add-on to Origin Version 4.1 (Microcal Inc.) for which the partial specific volume was calculated to be 0.7353 ml/g from the amino acid sequence (Perkins, 1986). The buffer density and viscosity were calculated using the program […] (Laue et al., 1992). […] Sedimentation equilibrium analysis of transthyretin in the presence of the ligand was entirely consistent with a single species of mass 55,784±107.87 Da, in good agreement with the calculated molecular mass of tetrameric wild type transthyretin with bound 4ajm15 (55794 Da). […]

subunit exchange of V30M transthyretin (V30M transthyretin): Exactly the same effect
IC50 (transthyretin Met30): 61.6 µM
IC50 (transthyretin Ile122): 29.4 µM
effect on binding of T4 by TBG [1]: did not affect
sedimentation coefficient of transthyretin with bound ligand (transthyretin; 3.6 μM protein, 3.6 μM ligand, 72 h 37° C., pH 4.4): 3.7 S
mass of single species by sedimentation equilibrium (transthyretin; 3.6 μM protein, 3.6 μM ligand, pH 4.4): 55,784±107.87 Da
quaternary structure under tetramer-dissociating conditions (transthyretin; 72 h at 37° C. and pH 4.4): remains tetrameric
SMILES: O=C(O)c1ccccc1Nc1cc(Cl)c(OCCCCCCCCCCCOc2c(Cl)cc(Nc3ccccc3C(=O)O)cc2Cl)c(Cl)c1 [4ajm15, 2,2′-(4,4′-(undecane-1,11-diylbis(oxy))bis(3,5-dichloro-4,1-phenylene))bis(azanediyl)dibenzoic acid]
subunit exchange of wild type transthyretin (wild type transthyretin): prevents any subunit exchange; also recorded: almost complete absence of exchange after 7 days
